Measurements as given in patent US20260083853A1, “CD70 ANTIBODY DRUG CONJUGATES AND METHODS OF USING THE SAME” (Genmab A/S, priority 2022, published 2026).

System: human CD70-expressing tumor cells (Raji, Caki-1, 786-O)
Assay: In vitro cytotoxicity (CTG, 96 h), all cell lines
Format: cell-based
Description: Raji (ATCC, CCL-86), Caki-1 (Cobioer, CBP60448), and 786-O (BNCC, BNCC338472) were cultured in CO2 thermostatic incubator at 37° C. with 5% CO2 in standard conditions. Cells were sub-cultured every 1-2 days, digested with 0.25% trypsin and passaged with a suitable density. When the cells were in the logarithmic growth phase and the amount meeting the assay's demand, cells were collected and plated onto 96-well solid white flat bottom plates for assay. One day later test articles (2E7 antibody or 2E7-LD038 conjugate ranging from 2 μM to 0.1 nM, or exatecan ranging from 20 μM to 0.03 nM) were added to the cells. Plates were then incubated at 37° C. for 96 h. Cell Titer Glo (CTG) (40 μl per well) was subsequently added to the plates. Luciferase reading was collected 5 min after and analyzed by Microplate readers. All readings were normalized as percentage of viable cells in the untreated control wells and the IC50 values were calculated by Prism software.

## CC[C@@]1(O)C(=O)OCc2c1cc1n(c2=O)Cc2c-1nc1cc(F)c(C)c3c1c2[C@@H](N)CC3 [Exatecan, exatecan]
  cytotoxicity: cytotoxic on all cell lines
